From US12312359B2 (Vitae Pharmaceuticals, LLC, priority 2016, dated 2025) come the findings set out here.

One may read the IC50 as the concentration needed to halve the response being measured. A lower IC50 goes with inhibition by little substance. Usually EC50 stands for the concentration that produces a half-maximal response. A lower EC50 goes with an effect from little substance.

A short description of data set [1]: Water activity analysis (slurries) of sesquifumaric acid salt forms. Format: physicochemical. The conditions noted are these: slurried in ACN/water mixture.
Data set [2] in a line: Physical stability analysis of sesquifumaric acid salt forms (drying, heating). Format: physicochemical.
Data set [3] concerns the target T1, biotinylated wild-type menin and MLL-AF9 fusion protein (menin/MLL binding) (Homo sapiens, UniProt O00255).
T1 construct: made in house; host or cells: menin: E. coli; MLL-AF9-FLAG: HEK293 cells, used as cleared lysate
T1 sequence (O00255 1-610): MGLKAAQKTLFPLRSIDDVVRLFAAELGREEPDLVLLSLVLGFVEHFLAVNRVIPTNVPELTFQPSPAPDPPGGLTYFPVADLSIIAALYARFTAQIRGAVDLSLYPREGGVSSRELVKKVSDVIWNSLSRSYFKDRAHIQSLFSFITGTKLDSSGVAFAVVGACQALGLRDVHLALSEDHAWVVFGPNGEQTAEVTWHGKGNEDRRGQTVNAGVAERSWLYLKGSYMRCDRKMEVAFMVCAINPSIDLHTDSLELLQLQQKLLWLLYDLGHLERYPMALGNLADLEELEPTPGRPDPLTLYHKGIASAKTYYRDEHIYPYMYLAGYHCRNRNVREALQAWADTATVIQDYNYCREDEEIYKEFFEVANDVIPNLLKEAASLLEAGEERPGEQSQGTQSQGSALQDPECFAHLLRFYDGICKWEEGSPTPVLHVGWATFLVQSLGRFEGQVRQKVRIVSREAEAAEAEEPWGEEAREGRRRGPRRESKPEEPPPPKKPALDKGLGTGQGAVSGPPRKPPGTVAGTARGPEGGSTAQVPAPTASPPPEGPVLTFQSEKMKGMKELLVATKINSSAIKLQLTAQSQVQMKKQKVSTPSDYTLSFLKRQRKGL
In words: Assay 1: menin/MLL binding AlphaLISA assay, wild-type menin. Particulars: Table 30; column head does not say wild-type or mutated menin. In short, it runs like this:
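Compound was preincubated 30 min at room temperature with biotinylated menin (5 nM) and MLL-AF9-FLAG lysate from HEK293 cells, pH 7.4 buffer with 5% DMSO and DTT. Bead-based Alpha signal after 60 min with streptavidin donor and anti-FLAG acceptor beads; four-parameter logistic fit gave IC50.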
On the technique in general: Bead proximity is the source of the signal in Alpha formats.

Data set [4] deals with human acute monocytic leukemia cell line MV-4-11. In words: Assay 2: cell proliferation assay (ATP quantitation, CellTiter-Glo), MV-4-11. Particulars: MV-4-11 cells. Format: cell-based. The procedure, abridged: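 MV-4-11 cells, 1.67×10^4 per well in medium with 10% FBS, were exposed to compound for 72 h at 37° C., 5% CO2; HL-60 cells served as toxicity control. Proliferation read as ATP content by CellTiter-Glo luminescence.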
(In general: In ATP-based viability assays light output follows the ATP content of the culture.)

As for `CC(C)N(C(=O)c1cc(F)ccc1Oc1cncnc1N1CC2(CCN(C[C@H]3CC[C@H](NS(C)(=O)=O)CC3)CC2)C1)C(C)C.CC(C)N(C(=O)c1cc(F)ccc1Oc1cncnc1N1CC2(CCN(C[C@H]3CC[C@H](NS(C)(=O)=O)CC3)CC2)C1)C(C)C.O=C(O)/C=C/C(=O)O.O=C(O)/C=C/C(=O)O.O=C(O)/C=C/C(=O)O` [Form F, 5-fluoro-N,N-diisopropyl-2-((4-(7-(((1r,4r)-4-(methylsulfonamido)cyclohexyl)methyl)-2,7-diazaspiro[3.5]nonan-2-yl)pyrimidin-5-yl)oxy)benzamide sesquifumaric acid salt], the “Form conversion when slurried in ACN/water mixture” value in data set [1] is on record as “Conversion to Form A was observed”.
Take `CC(C)N(C(=O)c1cc(F)ccc1Oc1cncnc1N1CC2(CCN(C[C@H]3CC[C@H](NS(C)(=O)=O)CC3)CC2)C1)C(C)C.CC(C)N(C(=O)c1cc(F)ccc1Oc1cncnc1N1CC2(CCN(C[C@H]3CC[C@H](NS(C)(=O)=O)CC3)CC2)C1)C(C)C.O=C(O)/C=C/C(=O)O.O=C(O)/C=C/C(=O)O.O=C(O)/C=C/C(=O)O` [Form E, 5-fluoro-N,N-diisopropyl-2-((4-(7-(((1r,4r)-4-(methylsulfonamido)cyclohexyl)methyl)-2,7-diazaspiro[3.5]nonan-2-yl)pyrimidin-5-yl)oxy)benzamide sesquifumaric acid salt]: in data set [2] (45° C. vacuum oven), the “Form change after 45° C. vacuum oven” value was “No changes observed in XRPD”. Also, the “Result (solid form after physical stability stress)” value in data set [2] (45° C. vacuum, 1 day) is reported as “Form E”.
Compound `CC(C)N(C(=O)c1cc(F)ccc1Oc1cncnc1N1CC2(CCN(C3CCc4cc(F)ccc4C3)C2)C1)C(C)C` (centres unmarked) [Example 114, 5-fluoro-2-((4-(6-(6-fluoro-1,2,3,4-tetrahydronaphthalen-2-yl)-2,6-diazaspiro[3.4]octan-2-yl)pyrimidin-5-yl)oxy)-N,N-diisopropylbenzamide] registered an IC50 in data set [3] below 100 nM. Further, the EC50 in data set [4] (Homo sapiens, MV4-11, 72 h) lay in the range of 100 to 1000 nM.
On the same counts, the results for `CC(C)N(C(=O)c1cc(F)ccc1Oc1cncnc1N1CCC2(CCN(Cc3ccc4[nH]c(=O)[nH]c4c3)C2)C1)C(C)C` (racemic) [Example 1, 5-fluoro-N,N-diisopropyl-2-((4-(7-((2-oxo-2,3-dihydro-1H-benzo[d]imidazol-5-yl)methyl)-2,7-diazaspiro[4.4]nonan-2-yl)pyrimidin-5-yl)oxy)benzamide] are below 100 nM and below 100 nM.
On the same counts, the results for `CC(C)N(C(=O)c1cc(F)ccc1Oc1cncnc1N1CC2(CN(C(=O)Cc3ccc(C#N)cc3)C2)C1)C(C)C` [Example 116, 2-((4-(6-(2-(4-cyanophenyl)acetyl)-2,6-diazaspiro[3.3]heptan-2-yl)pyrimidin-5-yl)oxy)-5-fluoro-N,N-diisopropylbenzamide] are below 100 nM and 100 to 1000 nM.
On the same counts, the results for `CC(C)c1ncncc1-c1cc(F)ccc1Oc1cncnc1N1CC2(CC(NCC3CCCCC3)CO2)C1` (centres unmarked) [Example 184, N-(cyclohexylmethyl)-2-(5-(4-fluoro-2-(4-isopropylpyrimidin-5-yl)phenoxy)pyrimidin-4-yl)-5-oxa-2-azaspiro[3.4]octan-7-amine] are below 100 nM and 100 to 1000 nM.
With `N#Cc1ccc2c(CN3CCC4(CCN(c5ncncc5Oc5ccc(F)cc5OCC5CC5)C4)C3)c[nH]c2c1` (centres unmarked) [Example 201, 3-((7-(5-(2-(cyclopropylmethoxy)-4-fluorophenoxy)pyrimidin-4-yl)-2,7-diazaspiro[4.4]nonan-2-yl)methyl)-1H-indole-6-carbonitrile], in data set [3], the IC50 was below 100 nM. The EC50 in data set [4] (Homo sapiens, MV4-11, 72 h) is at least 1000 nM.
On the same counts, the results for `CC(C)C(O)c1cc(F)ccc1Oc1cncnc1N1CCC2(CCN(Cc3ccc4c(c3)NC(=O)C4(C)C)C2)C1` (centres unmarked) [Example 10, 6-((7-(5-(4-fluoro-2-(1-hydroxy-2-methylpropyl)phenoxy)pyrimidin-4-yl)-2,7-diazaspiro[4.4]nonan-2-yl)methyl)-3,3-dimethylindolin-2-one] are below 100 nM and at least 1000 nM.
In turn, `O=C(O)c1ccc(-c2cc(F)ccc2Oc2cncnc2N2CCC3(CCN(Cc4ccc5[nH]c(=O)[nH]c5c4)C3)C2)c(C2CC2)c1` (centres unmarked) [Example 44, 2-cyclopropyl-5′-fluoro-2′-((4-(7-((2-oxo-2,3-dihydro-1H-benzo[d]imidazol-5-yl)methyl)-2,7-diazaspiro[4.4]nonan-2-yl)pyrimidin-5-yl)oxy)-[1,1′-biphenyl]-4-carboxylic acid] showed an IC50 in data set [3] below 100 nM. The same compound displayed an EC50 in data set [4] (Homo sapiens, MV4-11, 72 h) of 100 to 1000 nM.
In turn, “2-((4-(7-(((1r,4r)-4- (3,3- dimethylureido)cyclo- hexyl) methyl)- 2,7-diazaspiro [3.5]nonan-2- yl)pyrimidin-5- yl)oxy)-5-fluoro- N,N-diisopropyl benzamide [Example 97]” gave an IC50 in data set [3] below 100 nM. Moreover, in data set [4] (72 h), the EC50 was in the range of 100 to 1000 nM.
Consider `Fc1ccc(Oc2cncnc2N2CCC3(CCN(CC4CCOCC4)C3)C2)c(OC2CCCC2)c1` (centres unmarked) [Example 108, 2-(5-(2-(cyclopentyloxy)-4-fluorophenoxy)pyrimidin-4-yl)-7-((tetrahydro-2H-pyran-4-yl)methyl)-2,7-diazaspiro[4.4]nonane], for which the IC50 in data set [3] was below 100 nM. The same compound gave an EC50 in data set [4] (Homo sapiens, MV4-11, 72 h) of at least 1000 nM.
On the same counts, the results for `COC(=O)[C@@H]1CC1c1cc(F)ccc1Oc1cncnc1N1CCC2(CCN(Cc3ccc4[nH]c(=O)[nH]c4c3)C2)C1` (some centres unmarked) [Example 37, Methyl 2-(5-fluoro-2-((4-(7-((2-oxo-2,3-dihydro-1H-benzo[d]imidazol-5-yl)methyl)-2,7-diazaspiro[4.4]nonan-2-yl)pyrimidin-5-yl)oxy)phenyl)cyclopropanecarboxylate] are below 100 nM and 100 to 1000 nM.
On the same counts, the results for `N#Cc1ccc(-c2cc(F)ccc2Oc2cncnc2N2CCC3(CCN(Cc4ccc5c(c4)NC(=O)C5)C3)C2)c(C2CC2)c1` (centres unmarked) [Example 196, 2-cyclopropyl-5′-fluoro-2′-((4-(7-((2-oxoindolin-6-yl)methyl)-2,7-diazaspiro[4.4]nonan-2-yl)pyrimidin-5-yl)oxy)-[1,1′-biphenyl]-4-carbonitrile] are below 100 nM and below 100 nM.
On the same counts, the results for `CC(C)c1ccccc1-c1cc(F)ccc1Oc1cncnc1N1CCC2(CCN(Cc3ccc4[nH]c(=O)[nH]c4c3)C2)C1` (single isomer, unassigned) [Example 41A, 5-((7-(5-((5-fluoro-2′-isopropyl-[1,1′-biphenyl]-2-yl)oxy)pyrimidin-4-yl)-2,7-diazaspiro[4.4]nonan-2-yl)methyl)-1H-benzo[d]imidazol-2(3H)-one] are below 100 nM and below 100 nM.
As for `CCn1c(=O)[nH]c2cc(CN3CCC4(CCN(c5ncncc5Oc5ccc(F)cc5-c5ccc(C#N)cc5C5CC5)C4)C3)ccc21` (centres unmarked) [Example 191, 2-cyclopropyl-2′-((4-(7-((1-ethyl-2-oxo-2,3-dihydro-1H-benzo[d]imidazol-5-yl)methyl)-2,7-diazaspiro[4.4]nonan-2-yl)pyrimidin-5-yl)oxy)-5′-fluoro-[1,1′-biphenyl]-4-carbonitrile], the IC50 in data set [3] is below 100 nM. Moreover, in data set [4] (Homo sapiens, MV4-11, 72 h), the EC50 was below 100 nM.
The compound `CN(C(=O)c1cc(F)ccc1Oc1cncnc1N1CCC2(CCN(Cc3ccc4[nH]c(=O)[nH]c4c3)C2)C1)C1CC1` (centres unmarked) [Example 165, N-cyclopropyl-5-fluoro-N-methyl-2-((4-(7-((2-oxo-2,3-dihydro-1H-benzo[d]imidazol-5-yl)methyl)-2,7-diazaspiro[4.4]nonan-2-yl)pyrimidin-5-yl)oxy)benzamide] displayed an IC50 in data set [3] below 100 nM. Moreover, in data set [4] (Homo sapiens, MV4-11, 72 h), the EC50 is at least 1000 nM.
On the same counts, the results for `CCN(C(=O)OC)c1cc(F)ccc1Oc1cncnc1N1CCC2(CCN(Cc3ccc4[nH]c(=O)[nH]c4c3)C2)C1` (centres unmarked) [Example 91, methyl ethyl(5-fluoro-2-((4-(7-((2-oxo-2,3-dihydro-1H-benzo[d]imidazol-5-yl)methyl)-2,7-diazaspiro [4.4]nonan-2-yl)pyrimidin-5-yl)oxy)phenyl) carbamate] are below 100 nM and below 100 nM.
On the same counts, the results for `CC(C)C(=O)c1cc(F)ccc1Oc1cncnc1N1CCC2(CCN(Cc3ccc4c(c3)NC(=O)C4(C)C#N)C2)C1` (centres unmarked) [Example 11, 6-((7-(5-(4-fluoro-2-isobutyrylphenoxy)pyrimidin-4-yl)-2,7-diazaspiro[4.4]nonan-2-yl)methyl)-3-methyl-2-oxoindoline-3-carbonitrile] are below 100 nM and below 100 nM.
